# Results taken from patent US7468353B2, “Biologically active substance of a vasoactive intestinal peptide for treating interstitial lung diseases” (Mondobiotech Laboratories Anstalt, priority 2003, dated 2008).
# Tests used:
# PACAP receptor type I = target: T1, PACAP receptor type I (Homo sapiens, UniProt P41586); settings: cited from earlier work
# T1 sequence (P41586 21-468): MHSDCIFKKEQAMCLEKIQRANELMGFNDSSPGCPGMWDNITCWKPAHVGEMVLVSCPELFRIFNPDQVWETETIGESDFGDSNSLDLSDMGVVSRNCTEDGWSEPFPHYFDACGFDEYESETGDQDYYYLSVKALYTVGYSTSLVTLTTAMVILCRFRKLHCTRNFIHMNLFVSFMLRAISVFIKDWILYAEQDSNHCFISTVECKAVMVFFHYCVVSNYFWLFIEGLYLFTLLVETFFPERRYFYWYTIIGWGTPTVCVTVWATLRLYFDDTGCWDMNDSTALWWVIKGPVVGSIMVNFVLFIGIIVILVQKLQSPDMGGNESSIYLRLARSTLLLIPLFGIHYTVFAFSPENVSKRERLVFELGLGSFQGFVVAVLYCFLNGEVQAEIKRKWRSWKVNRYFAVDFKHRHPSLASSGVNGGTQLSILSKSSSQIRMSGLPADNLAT
# PACAP receptor type II = settings: PACAP versus VIP; cited from earlier work
# [1] = tested on: MHC I surface molecules on human dentritic cells; experiment: Effect of VIP on human dentritic cells: MHC I surface molecules, fluorescence-activated cell analysis; format: cell-based
# [2] = tested on: CD 83 surface molecules on human dentritic cells; experiment: Effect of VIP on maturation of human dentritic cells: CD 83 surface molecules, fluorescence-activated cell analysis; format: cell-based
# Text: (§1) FIGS. 1-11 show the effect of VIP on the maturation of human dentritic cells. […] is a characteristic surface protein on mature dentritic cells. Low rates of said protein indicate non-maturation of cells and thus, the inability to execute their biological function. […] Said reduction is indicated by the value M1 38.22—when measuring after application of 9.1 μmol—and compared to the value M1 81.26 (FIG. 10) of untreated cells (FIG. 1)—in the fluorescence-activated cell analysis. This procedure consists of searching the cell surfaces with the help of fluorescence-marked antibodies for the corresponding antigens (here: CD 83).
# [3] = tested on: MHC II surface molecules on human dentritic cells; experiment: Effect of VIP on human dentritic cells: MHC II surface molecules, fluorescence-activated cell analysis; format: cell-based
# Text: [The procedure below names another target; the source lists this target under the same test.] as §1
# [4] = VIP 9.1 μM, marker All, FIG. 11
substance,measurement,setting,value
His-Ser-Asp-Gly-Ile-Phe-Thr-Asp-Ser-Tyr-Ser-Arg-Tyr-Arg-Lys-Gln-Met-Ala-Val-Lys-Lys-Tyr-Leu-Ala-Ala-Val-Leu-Gly-Lys-Arg-Tyr-Lys-Gln-Arg-Val-Lys-Asn-Lys [PACAP],affinity of receptor type I,PACAP receptor type I,high affinity
same,affinity of receptor type II,PACAP receptor type II,similar
His-Ser-Asp-Ala-Val-Phe-Thr-Asp-Asn-Tyr-Thr-Arg-Leu-Arg-Lys-Gln-Met-Ala-Val-Lys-Lys-Tyr-Leu-Asn-Ser-Ile-Leu-Asn [VIP],value M1 for MHC 1,"[1]; 9.1 μmol VIP, untreated cells 85.59",70.57
same,"MHC I % Gated, marker All","[1]; VIP 1 μM, marker All, FIG. 7",100.00%
same,"MHC I Mean, marker All","[1]; VIP 1 μM, marker All, FIG. 7",200.61
same,"MHC I % Gated, marker M1","[1]; VIP 1 μM, marker M1, FIG. 7",78.69%
same,"MHC I Mean, marker M1","[1]; VIP 1 μM, marker M1, FIG. 7",242.97
same,"MHC 1 % Gated, marker All",[1]; [4],100.00%
same,"MHC 1 Mean, marker All",[1]; [4],136.67
same,"MHC 1 % Gated, marker M1","[1]; VIP 9.1 μM, marker M1, FIG. 11",70.57%
same,"MHC 1 Mean, marker M1","[1]; VIP 9.1 μM, marker M1, FIG. 11",174.61
same,inhibition of MHC I surface molecules compared with CD 83,[1]; same dose of VIP,far less inhibited
same,affinity of receptor type I,PACAP receptor type I,very low affinity
same,"CD 83 % Gated, marker All","[2]; VIP 1 μM, FIG. 6",100.00%
same,"CD 83 Mean, marker All","[2]; VIP 1 μM, FIG. 6",108.13
same,"CD 83 % Gated, marker M1","[2]; VIP 1 μM, FIG. 6",69.70%
same,"CD 83 Mean, marker M1","[2]; VIP 1 μM, FIG. 6",137.30
same,"CD 83 % Gated, marker All","[2]; VIP 9.1 μM, FIG. 10",100.00%
same,"CD 83 Mean, marker All","[2]; VIP 9.1 μM, FIG. 10",76.48
same,"CD 83 % Gated, marker M1","[2]; VIP 9.1 μM, FIG. 10",38.22%
same,"CD 83 Mean, marker M1","[2]; VIP 9.1 μM, FIG. 10",143.06
same,value M1 for CD 83,"[2]; after application of 9.1 μmol VIP, untreated cells 81.26",38.22
same,effect on CD 83 surface molecules,[2]; application of 1 μmol VIP (FIG. 5),dramatic reduction
same,effect on CD 83 surface molecules,[2]; application of 9.1 μmol VIP (FIG. 9),dramatic reduction
same,value M1 for MHC II,"[3]; 9.1 μmol VIP, untreated cells 83.94",77.73
same,"MHC II % Gated, marker All","[3]; VIP 1 μM, FIG. 8",100.00%
same,"MHC II Mean, marker All","[3]; VIP 1 μM, FIG. 8",170.33
same,"MHC II % Gated, marker M1","[3]; VIP 1 μM, FIG. 8",77.41%
same,"MHC II Mean, marker M1","[3]; VIP 1 μM, FIG. 8",207.21
same,"MHC II % Gated, marker All","[3]; VIP 9.1 μM, FIG. 12",100.00%
same,"MHC II Mean, marker All","[3]; VIP 9.1 μM, FIG. 12",175.73
same,"MHC II % Gated, marker M1","[3]; VIP 9.1 μM, FIG. 12",77.73%
same,"MHC II Mean, marker M1","[3]; VIP 9.1 μM, FIG. 12",213.25
same,inhibition of MHC II surface molecules compared with CD 83,[3]; same dose of VIP,far less inhibited
same,affinity of receptor type II,PACAP receptor type II,similar
